The record followed here is patent US20240166652A1, “MODULATORS OF THE INTEGRATED STRESS PATHWAY” (Calico Life Sciences LLC, priority 2017, published 2024).

A value given as a limit tells only on which side of the number the result lay.

A word on the EC50: it is the concentration at which the effect is half-maximal.

The first assay concerns ATF4 luciferase reporter in HEK293T cells. Briefly: ATF4-Luc assay (ATF4 luciferase reporter, tunicamycin-treated HEK293T cells). As to conditions: HEK293T cells carrying the ATF4 luciferase reporter, 1 μg/mL tunicamycin, 7 hours. It is filed as cell-based, human. Here is the method:
In order to test exemplary compounds of the invention in a cellular context, a stable VWMD cell line was first constructed. The ATF4 reporter was prepared by fusing the human full-length ATF4 5′-UTR (NCBI Accession No. BC022088.2) in front of the firefly luciferase (FLuc) coding sequence lacking the initiator methionine as described in Sidrauski et al (eLife 2013). The construct was used to produce recombinant retroviruses using standard methods and the resulting viral supernatant was used to transduce HEK293T cells, which were then subsequently selected with puromycin to generate a stable cell line.
HEK293T cells carrying the ATF4 luciferase reporter were plated on polylysine coated 384-well plates (Greiner Bio-one) at 30,000 cells per well. Cells were treated the next day with 1 μg/mL tunicamycin and 200 nM of a compound of Formula (I) for 7 hours. Luminescence was measured using One Glo (Promega) as specified by the manufacturer. Cells were maintained in DMEM with L-glutamine supplemented with 10% heat-inactivated FBS (Gibco) and Antibiotic-Antimycotic solution (Gibco).
Table 2 below summarizes the EC50 data obtained using the ATF4-Luc assay for exemplary compounds of the invention.
Background: Reporter assays use an easily measured gene product as a stand-in for the process of interest.
Turning to `O=C(COc1ccc(Cl)c(F)c1)NC12CCC(NC(=O)COc3ccc(C(F)(F)F)nc3)(CC1)C(F)C2` (single isomer, unassigned) [Compound 373], the EC50 lay in the range of 0.05 to 0.25 µM.

The same assay, now with this note: Homo sapiens, HEK-293T; HEK293T cells carrying the ATF4 luciferase reporter, 1 μg/mL tunicamycin, 7 hours.
With `O=C(COc1ccc(Cl)c(F)c1)NC12CCC(NC(=O)COc3ccc(C(F)(F)F)nc3)(CC1)C(O)C2` (racemic) [Compound 301, 2-(4-chloro-3-fluorophenoxy)-N-[3-hydroxy-4-(2-{[6-(trifluoromethyl)pyridin-3-yl]oxy}acetamido)bicyclo[2.2.2]octan-1-yl]acetamide], the EC50 is under 0.01 µM.
Still for that read-out and setting: as for `O=C(COc1ccc(Cl)c(F)c1)N[C@@]12CC[C@@](NC(=O)COc3ccc(Cl)c(F)c3)(C[C@@H]1O)[C@@H](O)C2` (racemic) [Compound 552, rac-N,N′-[(1R,2S,4R,5S)-2,5-dihydroxybicyclo[2.2.2]octane-1,4-diyl]bis[2-(4-chloro-3-fluorophenoxy)acetamide]], the figure is under 0.01 µM; as for `CO[C@H]1C[C@]2(NC(=O)COc3ccc(Cl)c(F)c3)CC[C@@]1(NC(=O)COc1ccc(Cl)c(F)c1)CC2O` (mixture of isomers) [Compound 553, rac-N,N′-[(1R,4R,5S)-2-hydroxy-5-methoxybicyclo[2.2.2]octane-1,4-diyl]bis[2-(4-chloro-3-fluorophenoxy)acetamide]], under 0.01 µM.
Take `CO[C@@H]1C[C@]2(NC(=O)COc3ccc(Cl)c(F)c3)CC[C@@]1(NC(=O)COc1ccc(Cl)c(F)c1)CC2O` (mixture of isomers) [Compound 554, rac-N,N′-[(1R,4R,5R)-2-hydroxy-5-methoxybicyclo[2.2.2]octane-1,4-diyl]bis[2-(4-chloro-3-fluorophenoxy)acetamide]]: the EC50 was under 0.01 µM.
On to `CO[C@H]1C[C@]2(NC(=O)COc3ccc(Cl)c(F)c3)CC[C@@]1(NC(=O)COc1ccc(Cl)c(F)c1)CC2=O` (racemic) [Compound 555, rac-N,N′-[(1R,2S,4R)-2-methoxy-5-oxobicyclo[2.2.2]octane-1,4-diyl]bis[2-(4-chloro-3-fluorophenoxy)acetamide]], for which the half-maximal effective concentration (EC50) lay in the range of 0.01 to 0.05 µM.
As for `CO[C@@H]1C[C@]2(NC(=O)COc3ccc(Cl)c(F)c3)CC[C@@]1(NC(=O)COc1ccc(Cl)c(F)c1)CC2=O` (racemic) [Compound 556, rac-N,N′-[(1R,2R,4R)-2-methoxy-5-oxobicyclo[2.2.2]octane-1,4-diyl]bis[2-(4-chloro-3-fluorophenoxy)acetamide]], the concentration giving a half-maximal response (EC50) was 0.01 to 0.05 µM.
Take `O=C(COc1ccc(Cl)c(F)c1)NC12CCC(NC(=O)COc3ccc(Cl)c(F)c3)(C[C@H]1O)[C@@H](O)C2` (racemic) [Compound 557, rac-N,N′-[(2R,5S)-2,5-dihydroxybicyclo[2.2.2]octane-1,4-diyl]bis[2-(4-chloro-3-fluorophenoxy)acetamide]]: the EC50 is under 0.01 µM.
For `O=C(COc1ccc(Cl)c(F)c1)N[C@]12CC[C@](NC(=O)COc3ccc(Cl)c(F)c3)(C[C@@H]1O)[C@@H](O)C2` (racemic) [Compound 560, rac-N,N′-[(1S,2S,4S,5S)-2,5-dihydroxybicyclo[2.2.2]octane-1,4-diyl]bis[2-(4-chloro-3-fluorophenoxy)acetamide]], the concentration for a half-maximal effect (EC50) was under 0.01 µM.
Same read-out and setting: the figure for `O=C(COc1ccc(Cl)c(F)c1)NC12CCC(NC(=O)COc3ccc(Cl)c(F)c3)(CC1)[C@@H](O)[C@H]2Br` (racemic) [Compound 571, rac-N,N′-[(2S,3R)-2-bromo-3-hydroxybicyclo[2.2.2]octane-1,4-diyl]bis[2-(4-chloro-3-fluorophenoxy)acetamide]] is 0.01 to 0.05 µM.
Still for that read-out and setting: as for `O=C(COc1ccc(Cl)c(F)c1)N[C@]12CC[C@](NC(=O)COc3ccc(Cl)c(F)c3)(C1)[C@H](O)C2` (racemic) [Compound 579, rac-N,N′-[(1S,2R,4R)-2-hydroxybicyclo[2.2.1]heptane-1,4-diyl]bis[2-(4-chloro-3-fluorophenoxy)acetamide]], the figure is 0.01 to 0.05 µM; as for `O=C(COc1ccc(Cl)c(F)c1)N[C@]12CC[C@](NC(=O)COc3ccc(Cl)c(F)c3)(C1)[C@@H](O)C2` (racemic) [Compound 585, rac-N,N′-[(1S,2S,4R)-2-hydroxybicyclo[2.2.1]heptane-1,4-diyl]bis[2-(4-chloro-3-fluorophenoxy)acetamide]], under 0.01 µM.
As for `O=C(COc1ccc(Cl)c(F)c1)N[C@@H]1[C@@H]2CC[C@@](NC(=O)COc3ccc(Cl)c(F)c3)(C2)C[C@H]1O` (racemic) [Compound 625, rac-N,N′-[(1R,3R,4R,5R)-3-hydroxybicyclo[3.2.1]octane-1,4-diyl]bis[2-(4-chloro-3-fluorophenoxy)acetamide]], the EC50 was under 0.01 µM.
Still for that read-out and setting: the figure for `O=C(COc1ccc(Cl)c(F)c1)N[C@@H]1C[C@@H]2C[C@H]1C[C@H]2NC(=O)COc1ccc(Cl)c(F)c1` (racemic) [Compound 628, rac-N,N′-[(1R,2S,4R,5S)-bicyclo[2.2.1]heptane-2,5-diyl]bis[2-(4-chloro-3-fluorophenoxy)acetamide]] is under 0.01 µM; for `O=C(COc1ccc(Cl)c(F)c1)N[C@@H]1[C@@H]2CC[C@@](NC(=O)COc3ccc(Cl)c(F)c3)(C2)C[C@@H]1O` (racemic) [Compound 638, rac-N,N′-[(1R,3S,4R,5R)-3-hydroxybicyclo[3.2.1]octane-1,4-diyl]bis[2-(4-chloro-3-fluorophenoxy)acetamide]] it is under 0.01 µM.
The same measure, in the same setting: as for `O=C(COc1ccc(Cl)c(F)c1)N[C@]12CC[C@H](C1)[C@@H](NCCOc1ccc(Cl)c(F)c1)[C@H](O)C2` (racemic) [Compound 649, rac-2-(4-chloro-3-fluorophenoxy)-N-[(1R,3R,4R,5R)-4-{[2-(4-chloro-3-fluorophenoxy)ethyl]amino}-3-hydroxybicyclo[3.2.1]octan-1-yl]acetamide], the figure is under 0.01 µM; as for `O=C(COc1ccc(Cl)c(F)c1)N[C@@H]1CC[C@]2(NC(=O)COc3ccc(Cl)c(F)c3)CC[C@H]1C2` (racemic) [Compound 653, rac-N,N′-[(1S,4S,5R)-bicyclo[3.2.1]octane-1,4-diyl]bis[2-(4-chloro-3-fluorophenoxy)acetamide]], under 0.01 µM; as for `O=C(COc1ccc(Cl)c(F)c1)NC12CCC(NC(=O)COc3ccc(Cl)c(F)c3)(CC1)[C@@H](O)[C@@H]2O` (racemic) [Compound 745, rac-N,N′-[(2R,3R)-2,3-dihydroxybicyclo[2.2.2]octane-1,4-diyl]bis[2-(4-chloro-3-fluorophenoxy)acetamide]], under 0.01 µM.
On the same count and under the same terms, as for `O=C(COc1ccc(Cl)c(F)c1)NC12CCC(NC(=O)COc3ccc(Cl)c(F)c3)(CC1)[C@H](O)C2` (single isomer, unassigned) [Compound 298], the figure is under 0.01 µM; as for `O=C(COc1ccc(Cl)c(F)c1)NC12CCC(NC(=O)COc3ccc(C(F)(F)F)nc3)(CC1)[C@@H](O)C2` (single isomer, unassigned) [Compound 302], under 0.01 µM; as for `O=C(COc1ccc(Cl)c(F)c1)NC12CCC(NC(=O)COc3ccc(C(F)(F)F)nc3)(CC1)[C@H](O)C2` (single isomer, unassigned) [Compound 303], 0.01 to 0.05 µM.
As to `O=C(COc1ccc(Cl)c(F)c1)NC12CCC(NC(=O)COc3ccnc(C(F)(F)F)c3)(CC1)[C@H](O)C2` (single isomer, unassigned) [Compound 318], the EC50 was 0.01 to 0.05 µM.
Same read-out and setting: the figure for `O=C(COc1ccc(Cl)c(F)c1)NC12CCC(NC(=O)COc3ccnc(C(F)(F)F)c3)(CC1)[C@@H](O)C2` (single isomer, unassigned) [Compound 319] is under 0.01 µM.
As to `O=C(COc1ccc(Cl)c(F)c1)NC12CCC(NC(=O)COc3ccc(F)cc3)(CC1)[C@H](O)C2` (single isomer, unassigned) [Compound 353], the EC50 is under 0.01 µM.
On the same count and under the same terms, the figure for `O=C(COc1ccc(Cl)c(F)c1)NC12CCC(NC(=O)COc3ccc(F)cc3)(CC1)[C@@H](O)C2` (single isomer, unassigned) [Compound 354] is under 0.01 µM; for `O=C(COc1ccc(Cl)c(F)c1)NC12CCC(NC(=O)COc3ccc(C(F)(F)F)nc3)(CC1)C(F)C2` (single isomer, unassigned) [Compound 372] it is 0.05 to 0.25 µM; for `CC(=O)O[C@@H]1CC2(NC(=O)COc3ccc(Cl)c(F)c3)CCC1(NC(=O)COc1ccc(Cl)c(F)c1)CC2` (single isomer, unassigned) [Compound 449] it is 0.01 to 0.05 µM.
For `O=C(COc1ccc(Cl)c(F)c1)N[C@H]1C[C@H]2C[C@@H]1C[C@@H]2NC(=O)COc1ccc(Cl)c(F)c1` (single isomer, unassigned) [Compound 620], the EC50 was under 0.01 µM.
Still for that read-out and setting: the figure for `O=C(COc1ccc(Cl)c(F)c1)N[C@@H]1C[C@@H]2C[C@H]1C[C@H]2NC(=O)COc1ccc(Cl)c(F)c1` (single isomer, unassigned) [Compound 621] is under 0.01 µM; for `O=C(COc1ccc(Cl)c(F)c1)NC12CCC(N[C@H](CCOc3ccc(Cl)cc3)C(=O)O)(CC1)C[C@@H]2O` (single isomer, unassigned) [Compound 693] it is 0.5 to 2 µM; for `O=C(COc1ccc(Cl)c(F)c1)NC12CCC(N[C@@H](CCOc3ccc(Cl)cc3)C(=O)O)(CC1)C[C@@H]2O` (single isomer, unassigned) [Compound 694] it is 0.25 to 0.5 µM.
`O=C(COc1ccc(Cl)c(F)c1)NC12CCC(NC(=O)COc3ccc(Cl)c(F)c3)(CC1)CC2` [Compound 100, N,N′-(bicyclo[2.2.2]octane-1,4-diyl)bis[2-(4-chloro-3-fluorophenoxy)acetamide]]: the EC50 is under 0.01 µM.
